Results taken from patent US20050080027A1, “Optimized production of viral vectors derived from paroviruses in packaging and production cells by hsv infection or treatment with dna methylation inhibitors” (priority 2001, published 2005).

System: HeLa t-derived AAV producer cells
Assay: Production of rAAV-(B7.2/GM-CSF) in producer cells using different inhibitors or helper viruses (transducing rAAV titer / AAV packaging efficiency)
Format: cell-based
Conditions: AdV MOI 10 alone or with 50 mM Na butyrate, 3 μM trichostatin A or 3 μM 5-azacytidine, or HSV-1 MOI 10 as helper virus, three days after infection
Description: The use, according to the invention, of the DNA methylation inhibitor leads to an increase in packaging efficiency to a level of at least 10^6, especially 10^7, preferably 10^8, in particular 10^9, transducing particles/ml of crude lyzate or of at least 10^10, especially 10^11, preferably 10^12, in particular 10^13, genomic particles/ml of crude lyzate. This corresponds to 10^5 to 10^8 genomic particles per sown cell. The packaging efficiency can be determined indirectly by using suitable cell lines to determine the transducing AAV titer. While this was effected specifically in this present case by measuring the B7.2-positive cells by fluorescence-labeling B7.2 and counting by means of FACS analysis, another common protein detection method can be used in the case of other transgenes. The transducing titer depends on the detection method and on the cell type employed, which means that it is necessary to select suitable cells when choosing the system for detecting the corresponding parvovirus or AAV serotype, for example HeLa cells in the case of AAV-2. The genomic titer is independent of the cell type. The genomic titer can be ascertained by means of real-time PCR, for example as described by Veldwijk M R et al. (2002) Mol. Ther. 6:272-8.
AdV was administered either alone or in combination with 50 mM Na butyrate (But), 3 μM trichostatin A (TSA) or 3 μM 5-azacytidine (Aza) (Sigma, Deisenhofen). “Standard” means transient cotransfection of HeLa cells with pAAV-(B7.2/GM-CSF) and the AAV-2 rep/cap helper plasmid and infection with adenovirus (AdV) (MOI 10); harvesting, 3 days after infection;
rAAV-(B7.2/GM-CSF) was initially prepared using producer cell lines (e.g. 1×10^6 cells sown in a 6 cm diameter cell culture dish, with the cells being sown 1 day before the infection) by infecting with adenovirus (multiplicity of infection, MOI 10). […] After 72 hours, the lyzates were prepared by freeze/thaw lysis and freed from the cell debris. Adenovirus […] HSV-1 was heat-inactivated at 56° C. […]

## CCCC(=O)[O-].[Na+] [But, Na butyrate]
  AAV packaging efficiency (yield of transducing rAAV particles): did not result in an increase in AAV packaging efficiency

## CC(/C=C/C(=O)NO)=C\[C@@H](C)C(=O)c1ccc(N(C)C)cc1 [TSA, trichostatin A]
  AAV packaging efficiency (yield of transducing rAAV particles): did not result in an increase in AAV packaging efficiency

## Nc1ncn([C@@H]2O[C@H](CO)[C@@H](O)[C@H]2O)c(=O)n1 [Aza, 5-azacytidine]
  AAV packaging efficiency (yield of transducing rAAV particles): restore this AAV packaging efficiency
